Data taken from patent US20170105997A1, “METHODS OF TREATING CANCER” (Northwestern University, priority 2014, published 2017).

Key:
Assay type in all cases: cell-based
RPMI-8226 = assay: gIC50 in multiple myeloma cell line RPMI-8226 treated with EZH2 inhibitors; conditions: Homo sapiens, MMSET none, UTX wt
Procedure: (§1) All cells were grown in RPMI 1640 (Invitrogen) supplemented with 10% heat-inactivated FBS and 1% penicillin/streptomycin.
(§2) Cells were treated with the EZH2 inhibitors below. GSK2816126A is also known as GSK126 and is a compound of Formula I, specifically Compound B as described herein. Data in Table I was used to generate the data in FIG. 14. EZH2 inhibitors of Formula II, III, and IV and Compound C are used to generate gIC50 values and similar results as with GSK126 are found. Additional cell lines are tested with EZH2 inhibitors of Formula I, II, III, IV, Compound B, and Compound C and an improved cell killing, e.g. as measured by gIC50, is seen in cell lines having an increased level of MMSET expression, or a decreased level of UTX enzyme, or both, as compared to a control, e.g. a tissue typed control sample not characterized as having cancerous attributes.

OpM2 = assay: gIC50 in multiple myeloma cell line OpM2 treated with EZH2 inhibitors; conditions: Homo sapiens, OPM-2, t(4;14)+, UTX Het c.197G>A p.G66D
Procedure: as §1, §2

LP1 = assay: gIC50 in multiple myeloma cell line LP1 treated with EZH2 inhibitors; conditions: Homo sapiens, LP-1, t(4;14)+, UTX Hom 1621C>T (Q541X)
Procedure: as §1, §2

KMS-12-BM = assay: gIC50 in multiple myeloma cell line KMS-12-BM treated with EZH2 inhibitors; conditions: Homo sapiens, MMSET none, UTX Hom del exons 5-12
Procedure: as §1, §2

KMS-11 = assay: gIC50 in multiple myeloma cell line KMS-11 treated with EZH2 inhibitors; conditions: Homo sapiens, t(4;14)+
Procedure: as §1, §2

- IC50 (RPMI-8226): 1680 nM
- IC50 (OpM2): 861 nM
- IC50 (LP1): 2380 nM
- IC50 (KMS-12-BM): 2570 nM
- IC50 (KMS-11): 3020 nM
Structure (SMILES): CC[C@H](C)n1cc(C)c2c(C(=O)NCc3c(C)cc(C)[nH]c3=O)cc(-c3ccc(N4CCNCC4)nc3)cc21 [GSK2816126A]
